Data reported in patent publication US11963960B2 (Flash Therapeutics, LLC, priority 2020, dated 2024).

Target: N-terminally GST-tagged HCK (75-526) (Homo sapiens (Human), UniProt P08631)
Experiment: HCK Kinase Assay (ProFluor Src-Family Kinase Assay)
Format: biochemical
Settings: HCK inhibitory activity, 50 μM ATP; read-out: HCK Activity
Protocol: The procedure of ProFluor Src-Family Kinase Assay (Promega, Cat. No. V1271) was then followed. To the reaction was added 5 μL Protease solution and the mixture was incubated for 60 minutes at room temperature (22-25° C.), followed by 5 μL Stabilizer solution. The fluorescence signal was read on an Envision multilabel plate reader (Perkin Elmer). The R110 was then read at an excitation wavelength of 485 nm and an emission wavelength of 530 nm. The AMC signal was read at an excitation wavelength of 355 nm and an emission wavelength of 460 nm.

Chain of N-terminally GST-tagged HCK (75-526) (P08631 75-526): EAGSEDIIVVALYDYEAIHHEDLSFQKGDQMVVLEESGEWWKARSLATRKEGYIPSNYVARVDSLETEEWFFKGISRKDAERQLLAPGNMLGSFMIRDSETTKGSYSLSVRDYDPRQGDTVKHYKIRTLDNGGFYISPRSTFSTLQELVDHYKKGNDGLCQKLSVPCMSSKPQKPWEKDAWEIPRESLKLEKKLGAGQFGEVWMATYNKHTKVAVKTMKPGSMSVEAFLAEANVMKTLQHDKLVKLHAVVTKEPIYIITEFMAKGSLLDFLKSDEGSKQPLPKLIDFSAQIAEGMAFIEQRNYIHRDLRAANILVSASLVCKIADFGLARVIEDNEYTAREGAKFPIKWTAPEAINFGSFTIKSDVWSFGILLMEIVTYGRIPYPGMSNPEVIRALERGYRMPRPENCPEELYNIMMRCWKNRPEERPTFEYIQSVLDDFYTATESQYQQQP

| IC50 [nM] | Structure (SMILES) |
| --- | --- |
| < 50 | Nc1ncnc2c1c(-c1ccc(Oc3ccccc3)cc1)cn2[C@H]1CC[C@H](N2CCC(N)CC2)CC1 [Example 52, 7-((trans)-4-(4-aminopiperidin-1-yl)cyclohexyl)-5-(4-phenoxyphenyl)-7H-pyrrolo[2,3-d]pyrimidin-4-amine] |
| 50 to 250 | Nc1ncnc2c1c(-c1ccc(Oc3ccccc3)cc1)cn2[C@H]1CC[C@@H](N2CCC(N)CC2)CC1 [Example 53, 7-((cis)-4-(4-aminopiperidin-1-yl)cyclohexyl)-5-(4-phenoxyphenyl)-7H-pyrrolo[2,3-d]pyrimidin-4-amine] |
| < 50 | Nc1ncnc2c1c(-c1ccc(Oc3ccccc3)cc1)cn2[C@H]1CC[C@H](N2CCCC(N)C2)CC1 (stereo partly drawn) [Example 54, 7-((trans)-4-(3-aminopiperidin-1-yl)cyclohexyl)-5-(4-phenoxyphenyl)-7H-pyrrolo[2,3-d]pyrimidin-4-amine] |
| < 50 | Nc1ncnc2c1c(-c1ccc(Oc3ccccc3)cc1)cn2[C@H]1CC[C@@H](N2CCCC(N)C2)CC1 (stereo partly drawn) [Example 55, 7-((cis)-4-(3-aminopiperidin-1-yl)cyclohexyl)-5-(4-phenoxyphenyl)-7H-pyrrolo[2,3-d]pyrimidin-4-amine] |
| < 50 | Nc1ncnc2c1c(-c1ccc(Oc3ccccc3)cc1)cn2[C@H]1CC[C@H](N2CCC[C@H](N)C2)CC1 [Example 56, 7-((trans)-4-((S)-3-aminopiperidin-1-yl)cyclohexyl)-5-(4-phenoxyphenyl)-7H-pyrrolo[2,3-d]pyrimidin-4-amine] |
| < 50 | Nc1ncnc2c1c(-c1ccc(Oc3ccccc3)cc1)cn2[C@H]1CC[C@@H](N2CCC[C@H](N)C2)CC1 [Example 57, 7-((cis)-4-((S)-3-aminopiperidin-1-yl)cyclohexyl)-5-(4-phenoxyphenyl)-7H-pyrrolo[2,3-d]pyrimidin-4-amine] |
| 50 to 250 | Nc1ncnc2c1c(-c1ccc(Oc3ccccc3)cc1)cn2[C@H]1CC[C@@H](N2CCC[C@@H](N)C2)CC1 [Example 58, 7-((cis)-4-((R)-3-aminopiperidin-1-yl)cyclohexyl)-5-(4-phenoxyphenyl)-7H-pyrrolo[2,3-d]pyrimidin-4-amine] |
| < 50 | Nc1ncnc2c1c(-c1ccc(Oc3ccccc3)cc1)cn2[C@H]1CC[C@H](N2CCC[C@@H](N)C2)CC1 [Example 59, 7-((trans)-4-((R)-3-aminopiperidin-1-yl)cyclohexyl)-5-(4-phenoxyphenyl)-7H-pyrrolo[2,3-d]pyrimidin-4-amine] |
| < 50 | CN[C@@H]1CCCN([C@H]2CC[C@H](n3cc(-c4ccc(Oc5ccccc5)cc4)c4c(N)ncnc43)CC2)C1 [Example 60, 7-((trans)-4-((R)-3-(methylamino)piperidin-1-yl)cyclohexyl)-5-(4-phenoxyphenyl)-7H-pyrrolo[2,3-d]pyrimidin-4-amine] |
| < 50 | CN[C@@H]1CCCN([C@H]2CC[C@@H](n3cc(-c4ccc(Oc5ccccc5)cc4)c4c(N)ncnc43)CC2)C1 [Example 61, 7-((cis)-4-((R)-3-(methylamino)piperidin-1-yl)cyclohexyl)-5-(4-phenoxyphenyl)-7H-pyrrolo[2,3-d]pyrimidin-4-amine] |
| < 50 | CN(C)[C@@H]1CCCN([C@H]2CC[C@H](n3cc(-c4ccc(Oc5ccccc5)cc4)c4c(N)ncnc43)CC2)C1 [Example 62, 7-((trans)-4-((R)-3-(dimethylamino)piperidin-1-yl)cyclohexyl)-5-(4-phenoxyphenyl)-7H-pyrrolo[2,3-d]pyrimidin-4-amine] |
| 250 to 10000 | Nc1ncnc2c1c(-c1ccc(Oc3ccccc3)cc1)cn2[C@H]1CC[C@H](N2CCSCC2)CC1 [Example 63, 5-(4-phenoxyphenyl)-7-((trans)-4-thiomorpholinocyclohexyl)-7H-pyrrolo[2,3-d]pyrimidin-4-amine] |
| 50 to 250 | Nc1ncnc2c1c(-c1ccc(Oc3ccccc3)cc1)cn2[C@H]1CC[C@H](N2CCS(=O)(=O)CC2)CC1 [Example 65, 4-((trans)-4-(4-amino-5-(4-phenoxyphenyl)-7H-pyrrolo[2,3-d]pyrimidin-7-yl)cyclohexyl)thiomorpholine 1,1-dioxide] |
